Measurements published in patent publication US10570117B2, “Phenylimidazole compound” (Otsuka Pharmaceutical Factory, Inc., priority 2015, dated 2020).
Values after ≈ are worked out from the molar mass of the structure shown. Where two headings read alike, the source gives them in different places.

What was measured:
[1] = tested on: lipoprotein lipase (LPL) gene; test: LPL mRNA elevating action (RT-PCR quantification of LPL mRNA in C2Cl2 cells); type: cell-based, mouse; conditions: Mus musculus, 24 h, compound 10 μM, ratio relative to the amount of LPL mRNA in cells with DMSO only, read-out: Rate of increase in LPL mRNA
Procedure: LPL mRNA Elevating Action
C2Cl2 cells (cell strain derived from striated muscle of mouse) were seeded in 96-well plates using a DMEM medium (Gibco) (containing 2 mM L-glutamine and 10% fetal bovine serum). After the cells were grown, the medium was removed. Subsequently, media obtained by adding dimethyl sulfoxide (DMSO) solutions of the compounds to the same medium as described above to a concentration of 10 μM were individually added to the cells and allowed to stand for 24 hours. The compound-containing media were removed, and the plates were washed with phosphate buffered saline. Thereafter, the remaining cells were lysed and subjected to a reverse transcription polymerase chain reaction (RT-PCR reaction) to obtain cDNA. Primers specific to lipoprotein lipase (LPL) gene, a necessary enzyme, etc., were added to the obtained cDNA. The mixture was set in 7500 Fast Real Time PCR System produced by Applied Biosystem to perform a PCR reaction (20 cycles) and the amount of LPL mRNA amplified was quantified. The LPL mRNA elevating action of each compound in the test cells was indicated as the ratio relative to the amount of LPL mRNA in cells allowed to stand in a medium to which only DMSO was added, with the amount being defined as 1.
As Comparative Example 1, a test was performed in the same manner as above, using a compound disclosed as the compound of Example 57 in WO2010/090200.

[2] = Solubility in gastric juice or intestinal juice model fluid (precipitation method using DMSO); type: physicochemical; conditions: room temperature
Outline: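 Compound in DMSO added to JP disintegration test fluid 1 (pH 1.2) or fluid 2 (pH 6.8) and shaken 24 h at room temperature. After filtration, dissolved concentration (μg/mL) determined by UV absorbance against compound calibration curves.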

[3] = pH 1.2, simulated gastric fluid, kinetic from dmso stock, 1st fluid for Disintegration Test of Japanese Pharmacopoeia (pH: 1.2), read-out: Solubility (μg/mL) 1st fluid
[4] = pH 6.8, kinetic from dmso stock, 2nd fluid for Disintegration Test of Japanese Pharmacopoeia (pH: 6.8), read-out: Solubility (μg/mL) 2nd fluid

melting point	solubility at 24 h [2, 3]	solubility at 24 h [2, 4]	Structure (SMILES)	fold induction at 10 µM [1]
179 to 180 °C			COc1cc(OCc2ncc(C(F)(F)F)cc2Cl)ccc1-c1[nH]c(-c2ccc(F)nc2)nc1Br [Example 261]	4.08
160 to 162 °C			COc1cc(OCc2ncc(C(F)(F)F)cc2Cl)ccc1-c1[nH]c(-c2ccc(F)nc2)nc1Cl [Example 262]	3.61
166 to 170 °C			COc1cc(OCc2ncc(C(F)(F)F)cc2Br)ccc1-c1[nH]c(-c2ccc(F)nc2)nc1Cl [Example 263]	3.18
196 to 203 °C			COc1cc(OCc2ncc(Cl)cc2Br)ccc1-c1[nH]c(-c2ccc(F)nc2)nc1Br [Example 264]	2.99
223 to 225 °C (dec.)			COc1cc(OCc2ccnc(C(F)(F)F)c2)ccc1-c1[nH]c(-c2ccc(F)nc2)nc1Br [Example 271]	3.39
200 to 202 °C (dec.)			COc1cc(OCc2cccc(C(F)(F)F)n2)ccc1-c1[nH]c(-c2ccc(F)nc2)nc1Br [Example 273]	2.5
203 to 208 °C			COc1cc(OCc2ccncc2C(F)(F)F)ccc1-c1[nH]c(-c2ccc(F)nc2)nc1Cl [Example 277]	2.66
176 to 179 °C			COc1cc(OCc2cccnc2C(F)(F)F)ccc1-c1[nH]c(-c2ccc(F)nc2)nc1Br [Example 278]	2.95
156 to 158 °C			COc1cc(OCc2ncc(Cl)cc2C(F)(F)F)ccc1-c1[nH]c(-c2ccc(F)nc2)nc1Cl [Example 280]	2.91
163 to 165 °C			COc1cc(OCc2ccc(F)cc2F)ccc1-c1[nH]c(-c2ccc(F)nc2)nc1Cl [Example 285]	3.01
165 to 171 °C			COc1cc(OCc2cccnc2C(F)(F)F)ccc1-c1[nH]c(-c2ccc(F)nc2)nc1Cl [Example 287]	3.53
140 to 142 °C			COc1cc(OCc2ccc(C(F)(F)F)nc2)ccc1-c1c(Br)nc(-c2ccc(Cl)nc2)n1C [Example 299]	2.97
222 to 227 °C			Fc1ccc(-c2nc(F)c(-c3ccc(OCc4ncc(C(F)(F)F)cc4F)cc3)[nH]2)cn1 [Example 356]	2.06

Continued, compound first:

Structure (SMILES)	melting point	solubility at 24 h [2, 3]	solubility at 24 h [2, 4]	fold induction at 10 µM [1]
COc1cc(OCc2ccc(C(F)(F)F)nc2)ccc1-c1c[nH]c(-c2ccc(F)nc2)n1 [Example 1, 2-fluoro-5-[5-[2-methoxy-4-((6-(trifluoromethyl)pyridin-3-yl)methoxy)phenyl]-1H-imidazol-2-yl]pyridine]	165 to 166 °C	20.7 µg/mL (≈ 46.6 µM)	1.7 µg/mL (≈ 3.83 µM)	2.97
COc1cc(OCc2ccc(C(F)(F)F)nc2)ccc1-c1[nH]c(C2CCC(F)(F)CC2)nc1C [Example 6]	167 to 169 °C	91.5 µg/mL (≈ 190 µM)	47 µg/mL (≈ 97.6 µM)	4.44
COc1cc(OCc2coc(C)n2)ccc1-c1cnc(C2CCC(F)(F)CC2)[nH]1 [Example 13]	52 to 63 °C	> 81 µg/mL	74 µg/mL (≈ 183 µM)	2.31
COc1cc(OCc2ccc(C(F)(F)F)nc2)c(C)cc1-c1cnc(-c2ccc(F)nc2)[nH]1 [Example 15]	199 to 201 °C (dec.)	7.8 µg/mL (≈ 17 µM)	< 8.1 µg/mL	4.27
COc1cc(-c2cnc(C3CCC(F)(F)CC3)[nH]2)ccc1OCc1ccc(C(F)(F)F)nc1 [Example 16]	162 to 167 °C	90.8 µg/mL (≈ 194 µM)	13.4 µg/mL (≈ 28.7 µM)	3.14
COc1cc(OCc2ccc(C(F)(F)F)nc2)ccc1-c1cnc(C2CCC(F)(F)CC2)[nH]1 [Example 17]	62 to 72 °C	> 93 µg/mL	3 µg/mL (≈ 6.42 µM)	3.2
COc1cc(OCc2ccc(C(F)(F)F)cn2)ccc1-c1c[nH]c(-c2ccc(O)nc2)n1 [Example 18]	> 250 °C	43.5 µg/mL (≈ 98.3 µM)	3.7 µg/mL (≈ 8.36 µM)	1.05
COc1cc(OCc2coc(C)n2)ccc1-c1c[nH]c(-c2ccc(Cl)nc2)n1 [Example 19]	168 to 171 °C	76.7 µg/mL (≈ 193 µM)	2.2 µg/mL (≈ 5.54 µM)	1.7
COCCOc1cc(OCc2ccc(C(F)(F)F)cn2)ccc1-c1c[nH]c(-c2ccc(Cl)nc2)n1 [Example 21]	162 to 167 °C	3 µg/mL (≈ 5.94 µM)	< 1.8 µg/mL	1.99
COc1cc(OCc2cnc(C)cn2)ccc1-c1c[nH]c(-c2ccc(Cl)nc2)n1 [Example 22]	199 to 201 °C	7.5 µg/mL (≈ 18.4 µM)	1.6 µg/mL (≈ 3.92 µM)	2.22
COc1cc(OCc2ccc(C(F)(F)F)nc2)ccc1-c1nc(-c2ccc(F)cn2)[nH]c1C [Example 23]	140 to 142 °C	13.1 µg/mL (≈ 28.6 µM)	< 1.6 µg/mL	2.94
COc1cc(OCc2ccc(C(F)(F)F)nc2)ccc1-c1nc(-c2ccc(F)nc2)[nH]c1C [Example 24]	169 to 171 °C	53.6 µg/mL (≈ 117 µM)	1.8 µg/mL (≈ 3.93 µM)	2.94
COc1cc(OCc2ccc(C(F)(F)F)cn2)ccc1-c1nc(-c2ccc(F)cn2)[nH]c1C [Example 25]	180 to 182 °C	83.1 µg/mL (≈ 181 µM)	1 µg/mL (≈ 2.18 µM)	2.68
COc1cc(OCc2ccc(C(F)(F)F)nc2)ccc1-c1nc(-c2ccc(Cl)cn2)[nH]c1C [Example 27]	157 to 159 °C	5.9 µg/mL (≈ 12.4 µM)	0.5 µg/mL (≈ 1.05 µM)	2.45
COc1cc(OCc2ccc(C(F)(F)F)cc2)ccc1-c1nc(-c2ccc(Cl)cn2)[nH]c1C [Example 34]	170 to 173 °C	17 µg/mL (≈ 35.9 µM)	< 0.3 µg/mL	2.22
COc1cc(OCc2ccc(C(F)(F)F)cn2)ccc1-c1c[nH]c(-c2ccc(S(C)(=O)=O)nc2)n1 [Example 38]	213 to 214 °C	60.5 µg/mL (≈ 120 µM)	0.9 µg/mL (≈ 1.78 µM)	2.25
COc1cc(OCc2ccc(C(F)(F)F)cn2)ccc1-c1nc(-c2ccc(F)nc2)[nH]c1C [Example 39]	141 to 150 °C	> 99 µg/mL	5.2 µg/mL (≈ 11.3 µM)	2.7
COc1cc(OCc2ccc(C(F)(F)F)cn2)ccc1-c1c[nH]c(-c2cccc(N3CCCC3)n2)n1 [Example 40]	100 to 108 °C	6.9 µg/mL (≈ 13.9 µM)	2.8 µg/mL (≈ 5.65 µM)	0.93
COc1cc(OCc2ccc(C(F)(F)F)cn2)ccc1-c1nc(-c2ccc(Cl)nc2)[nH]c1Cl [Example 235]	180 to 182 °C			2.78
COc1cc(OCc2cncc(C(F)(F)F)c2)ccc1-c1[nH]c(-c2ccc(Cl)nc2)nc1Cl [Example 241]	198 to 201 °C			2.45
COc1cc(OCc2ccnc(C(F)(F)F)c2)ccc1-c1[nH]c(-c2ccc(Cl)nc2)nc1Cl [Example 242]	236 to 239 °C			2.38
COc1cc(OCc2ncc(Cl)cc2F)ccc1-c1[nH]c(-c2ccc(Cl)nc2)nc1Br [Example 248]	172 to 176 °C			2.36
COc1cc(OCc2ncc(Cl)cc2F)ccc1-c1[nH]c(-c2ccc(Cl)nc2)nc1Cl [Example 249]	174 to 181 °C			2.5
COc1cc(OCc2cncc(C(F)(F)F)c2)ccc1-c1[nH]c(-c2ccc(Cl)nc2)nc1Br [Example 252]	186 to 199 °C			2.58
COc1cc(OCc2ncc(C(F)(F)F)cc2Br)ccc1-c1[nH]c(-c2ccc(F)nc2)nc1Br [Example 254]	148 to 170 °C			2.71
COc1cc(OCc2ccc(F)cc2F)ccc1-c1[nH]c(-c2ccc(F)nc2)nc1Br [Example 258]	164 to 166 °C			2.91
COc1cc(OCc2ccc(Cl)cc2F)ccc1-c1[nH]c(-c2ccc(F)nc2)nc1Br [Example 259]	165 to 167 °C			2.93
COc1cc(OCc2ccc(Br)cc2F)ccc1-c1[nH]c(-c2ccc(F)nc2)nc1Br [Example 260]	158 to 161 °C			2.95
